Data on two substances can be found in US7307166B1, “Oxpurine nucleosides and their congeners, and acyl, derivatives thereof, for improvement of hematopoiesis” (Wellstat Therapeutics Corporation, priority 1987, dated 2007).

The subject of test [1] is rabbits treated with cyclophosphamide. The conditions noted are these: rabbit, in vivo; cited from earlier work.
Test [2] relates to Balb/C female mice. The experiment in a line: Hematopoietic recovery after cyclophosphamide in mice (spleen weight, blood cell counts). The test is classed as in vivo, mouse.
Test [3] relates to Balb/C female mice. Described as above. The class given is in vivo, mouse. The source holds these as a separate data set.
Test [4] has as its system bone marrow cells in culture. The conditions noted are these: sub-optimal amounts of colony stimulating factors; cited from earlier work.

For the substance polyguanosine monophosphate, in test [1], the leukocyte formation result was “failed to stimulate”.

For “polyoxyethylene sorbitan mono-oleate [Tween 80]”, the spleen weight result in the test with Balb/C female mice [2] (Ex 38: day 7 after CP, guanosine 5, acyl derivatives 2.5 μmoles/mouse/day in 0.2% Tween 80 i.p. 6 days, Tween 80 0.2%) is “No significant difference”; in the test with Balb/C female mice [2] (Ex 41: day 7 after CP, Tween 80 0.2% on days 4-6 or 1-6 (not days 1-4), vs saline), “elevated”; in the test with Balb/C female mice [3] (Ex 46: day 7 after CP, Tween 80 0.5% alone vs saline), “modest increase”. Moreover, the lymphocyte counts result in the test with Balb/C female mice [2] (Ex 41: day 7 after CP, Tween 80 0.2% for any period) is “not affected”. Moreover, the mean spleen weight entry with Balb/C female mice [2] (Ex 45: day 7 after CP, Tween 80 0.5%) is reported as “some increase”. The neutrophil counts result in the test with Balb/C female mice [3] (Ex 58: day 7 after CP, 1.0% Tween alone i.p. 6 days, vs saline) was “significantly different from controls”. Further, the “concentration of maximum activity” value in test [4] was 10 ng/mL.
